Patent US20210198277A1, “AMINE-SUBSTITUTED ARYL OR HETEROARYL COMPOUNDS” (Epizyme, Inc., priority 2016, published 2021)

target: T1, EHMT2 (Homo sapiens, UniProt Q96KQ7); assay: MDA-MB-231 H3K9me2 in-cell Western assay (EHMT2 ICW); format: cell-based; conditions: Table VI; read-out: EHMT2 ICW IC50
T1 construct: host or cells: MDA-MB-231
T1 sequence (Q96KQ7 1-1210): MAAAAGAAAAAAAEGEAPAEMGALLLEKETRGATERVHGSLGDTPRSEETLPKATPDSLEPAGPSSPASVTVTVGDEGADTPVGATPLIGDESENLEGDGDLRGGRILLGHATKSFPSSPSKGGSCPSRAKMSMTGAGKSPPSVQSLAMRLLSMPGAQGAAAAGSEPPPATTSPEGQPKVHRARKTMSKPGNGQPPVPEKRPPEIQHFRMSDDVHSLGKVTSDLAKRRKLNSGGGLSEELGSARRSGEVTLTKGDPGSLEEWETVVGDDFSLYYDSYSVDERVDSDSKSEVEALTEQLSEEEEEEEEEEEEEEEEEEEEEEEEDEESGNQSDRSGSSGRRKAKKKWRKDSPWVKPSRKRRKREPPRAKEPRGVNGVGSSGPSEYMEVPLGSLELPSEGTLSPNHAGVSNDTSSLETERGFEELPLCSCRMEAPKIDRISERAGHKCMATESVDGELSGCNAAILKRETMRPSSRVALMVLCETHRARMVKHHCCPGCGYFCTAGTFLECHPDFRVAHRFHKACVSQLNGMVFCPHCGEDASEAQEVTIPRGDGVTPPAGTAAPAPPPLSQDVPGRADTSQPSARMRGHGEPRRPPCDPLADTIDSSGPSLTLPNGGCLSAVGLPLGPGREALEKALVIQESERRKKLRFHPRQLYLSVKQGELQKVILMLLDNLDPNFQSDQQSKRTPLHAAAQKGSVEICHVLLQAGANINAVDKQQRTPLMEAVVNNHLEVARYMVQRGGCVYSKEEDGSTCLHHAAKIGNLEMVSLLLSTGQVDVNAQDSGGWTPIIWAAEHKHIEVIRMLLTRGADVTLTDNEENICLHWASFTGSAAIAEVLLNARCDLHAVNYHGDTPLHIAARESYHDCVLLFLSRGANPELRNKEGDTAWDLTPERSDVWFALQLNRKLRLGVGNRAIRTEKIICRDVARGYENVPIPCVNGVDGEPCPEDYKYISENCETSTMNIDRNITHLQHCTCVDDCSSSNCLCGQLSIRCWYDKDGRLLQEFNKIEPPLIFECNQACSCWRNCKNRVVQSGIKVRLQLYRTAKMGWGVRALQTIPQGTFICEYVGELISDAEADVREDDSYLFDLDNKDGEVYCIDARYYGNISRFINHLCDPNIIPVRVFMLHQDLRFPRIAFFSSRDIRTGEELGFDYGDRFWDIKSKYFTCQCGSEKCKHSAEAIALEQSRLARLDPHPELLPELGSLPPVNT
Procedure, shortened: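 Infrared read-out at 800 and 700 nm (H3K9me2 antibody vs DRAQ5 DNA stain) of fixed MDA-MB-231 cells after 48 h compound treatment at 37 °C. Well ratios were converted to percent inhibition, and IC50 was obtained by variable-slope nonlinear regression on triplicates.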

Row | IC50 [µM] | Compound
1 | 1 to 10 | CNc1ccnc(Nc2ccc(OC)c(OCCC(C)NC)c2)n1 (stereo not drawn) [Compound 1016]
2 | 1 to 10 | CNCCNCc1cc(Nc2nc(C)cc(NC)n2)ccc1OC [Compound 964]
3 | 0.1 to 1 | CNc1cc(C)nc(Nc2ccc(OC)c(OC[C@H](O)CN3CC(C)C3)c2)n1 [Compound 985]
4 | 0.1 to 1 | CNc1ccnc(Nc2ccc(OC)c(OCC(C)CN3CCC3)c2)n1 (stereo not drawn) [Compound 1008]
5 | 1 to 10 | CNC(=O)CCNc1cc(C)nc(Nc2cnc(OC)c(OCCCN3CCCC3)c2)n1 [Compound 887]
6 | > 10 | COc1ncc(Nc2nc(C)cc(NCC3COC3)n2)cc1OC[C@@H](O)CN1CCCC1 [Compound 883]
7 | 0.1 to 1 | CNc1cc(C)nc(Nc2ccc(OC)c(CNCCN(C)C)c2)n1 [Compound 990]
8 | > 10 | CNc1nc(C2=CC(C)(C)NC(C)(C)C2)c2cc(OC)c(OCCCN3CCCC3)cc2n1 [Compound 961]
9 | 0.1 to 1 | CNc1cc(C)nc(Nc2ccc(OC)c(OC[C@@H](O)CN3CCCC3)c2)n1 [Compound 905]
